{"source": "patent EP4725957A1", "about": "“GROUP OF CYCLIC ALKALINE LIPOPEPTIDE COMPOUNDS, AND PREPARATION METHOD THEREFOR AND USE THEREOF” (Institute of Medicinal Biotechnology, Chinese Academy of …, priority 2023, dated 2024)", "key": {"[1]": {"tested_on": "Pseudomonas aeruginosa ATCC27853", "assay": "In vivo antibacterial (protection) test in infected mice", "conditions": "infected ICR mice; for mortality rate: 7 days observation", "source_text": "Pseudomonas aeruginosa ATCC27853 was selected for the determination of in vivo antibacterial activity.\nOne day before infection, the test bacteria were inoculated onto the corresponding nutrient agar plates and cultured overnight. On the day of infection, single colonies grown on the plates were picked and suspended in sterile normal saline, and the suspension was mixed thoroughly to obtain the original bacterial solution. The bacterial solution was then adjusted to the required concentration with 5% dried yeast powder and prepared freshly prior to use.\nHealthy ICR mice were randomly divided into groups, with 5 mice per group, half male and half female. Bacterial solutions of different dilutions were aspirated and injected intraperitoneally into mice at a volume of 0.5 mL per 20 g of body weight. The mortality of mice was recorded within 7 days after infection. The minimum bacterial dose causing 100% mortality in mice was defined as the minimum lethal dose (MLD), which was used as the infection dose for the in vivo protection test.\nDrug administration was performed via tail vein injection at 2 h, 8 h, 24 h, and 30 h after infection, with a total of 4 administrations, and the administration volume was 20 mL/kg. For the preparation of drug solutions, Compound 7, together with the control drugs polymyxin B and meropenem, were dissolved in normal saline to the required concentrations for tail vein injection, and all solutions were prepared freshly prior to use.\nIn the preliminary test, the drug dose concentrations that caused 100% mortality and no mortality in mice after infection with the tested bacteria were determined. Based on this dose range, 4-5 dose groups were established, with a dose ratio of 1:0.5 to 1:0.8 between adjacent groups.\nMice were randomly grouped according to body weight, with 8 mice per group (half male and half female). Each mouse was intraperitoneally infected with the test bacterial solution at a volume of 0.5 mL per 20 g of body weight, followed by tail vein injection at 2 h, 8 h, 24 h, and 30 h after infection. Mice in the blank control group were not infected with bacterial solution but were only given an equal volume of vehicle at an administration volume of 20 mL/kg. The mortality of mice was observed and recorded for 7 consecutive days.\nThe minimum lethal bacterial concentration of Pseudomonas aeruginosa ATCC27853 for intraperitoneal infection in mice was 4.2 × 10^2 CFU/mL, which was used as the infection dose in the formal test.\nMice in the infection control group were intraperitoneally inoculated with Pseudomonas aeruginosa ATCC27853 bacterial solution at the MLD concentration ([…]). Infection symptoms began to appear 3-4 hours after inoculation, and all 8 animals died within 48 hours (8/8), with a mortality rate of 100%."}, "[2]": {"assay": "Nephrotoxicity assay: in vitro cytotoxicity of HK-2 cells by CCK-8 assay", "format": "cell-based", "conditions": "human, HK-2 cells (human renal), 72 h incubation with drug-containing medium", "summary_of_the_method": "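Compounds in sterile water, diluted to final 500, 250, 200, 100, 50, 25 and 12.5 µg/mL, were applied for 72 h to human HK-2 kidney cells. Absorbance at 450 nm after 3 h CCK-8 gave viability against untreated wells, and IC50 came from logarithmic regression; three replicates.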"}, "[3]": {"conditions": "tail vein twice daily for 2 days, Bliss method"}}, "note": "Bridge positions count the residues as written; N and C are the ends. Square brackets hold non-standard residues; d marks the D form. Peptide text beside a SMILES is read from it. * marks the point of attachment. Heptanoyl(6-Me) = CC(C)CCCCC(=O)*; Dab = NCC[C@H](N)C(=O)O; Dap = NC[C@H](N)C(=O)O", "data": [{"compound": "CC(C)CCCCC(=O)N[C@@H](CCN)C(=O)N[C@H](C(=O)N[C@@H](CN)C(=O)N[C@H]1CCNC(=O)[C@H]([C@@H](C)O)NC(=O)[C@H](CCN)NC(=O)[C@H](CCN)NC(=O)[C@H]([C@@H](C)O)NC(=O)[C@@H](Cc2ccccc2)NC(=O)[C@H](CCN)NC1=O)[C@@H](C)O", "note": "[Compound 7, 6-methylheptanoyl-Dab-Thr-Dap-ring(4-10)[Dab-Dab-D-Phe-Thr-Dab-Dab-Thr]] ({Heptanoyl(6-Me)}-[Dab]T[Dap][Dab][Dab][dF]T[Dab][Dab]T; lactam 4-C)", "values": [{"measurement": "mortality rate", "setting": "[1]; 3.4 mg/kg tail vein twice daily for 2 days", "result": 100, "unit": "%"}, {"measurement": "mortality rate", "setting": "[1]; 4.9 mg/kg tail vein twice daily for 2 days", "result": 87.5, "unit": "%"}, {"measurement": "mortality rate", "setting": "[1]; 7 mg/kg tail vein twice daily for 2 days", "result": 37.5, "unit": "%"}, {"measurement": "mortality rate", "setting": "[1]; 10 mg/kg tail vein twice daily for 2 days", "result": 0, "unit": "%"}, {"measurement": "ED5", "setting": "[1]; [3]", "result": 4.54, "unit": "mg/kg"}, {"measurement": "ED50", "setting": "[1]; [3]", "result": 6.38, "unit": "mg/kg"}, {"measurement": "ED95", "setting": "[1]; [3]", "result": 8.96, "unit": "mg/kg"}, {"measurement": "IC50 at 72 h", "setting": "[2]", "result": "> 500", "unit": "µg/mL"}]}]}
